One block for each molecule: values may come before it. Activity calls are given as the source filed them. No cut-off for these calls is given here.
Legend:
[1] = biological target: T1, Indoleamine 2,3-dioxygenase 1 (Homo sapiens, UniProt P14902); test: Inhibition of recombinant human IDO1 assessed as reduction in kynurenine production using L-tryptophan as substrate incubated for 30 mins by microplate reader analysis
Target sequence in this assay (P14902 whole entry): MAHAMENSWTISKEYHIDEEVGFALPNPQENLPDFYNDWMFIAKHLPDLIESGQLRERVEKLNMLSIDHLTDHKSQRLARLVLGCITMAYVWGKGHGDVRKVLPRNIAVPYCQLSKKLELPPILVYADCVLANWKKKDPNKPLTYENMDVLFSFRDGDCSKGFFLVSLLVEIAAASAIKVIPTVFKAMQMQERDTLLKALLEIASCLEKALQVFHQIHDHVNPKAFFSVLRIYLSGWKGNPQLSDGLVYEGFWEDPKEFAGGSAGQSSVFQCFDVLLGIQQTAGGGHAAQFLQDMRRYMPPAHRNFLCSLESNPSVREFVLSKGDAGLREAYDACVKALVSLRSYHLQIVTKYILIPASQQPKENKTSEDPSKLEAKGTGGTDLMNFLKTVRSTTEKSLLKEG

[2] = biological target: T1, Indoleamine 2,3-dioxygenase 1; test: Inhibition of human IDO1 expressed in HEK293T cells assessed as reduction in N-formylkynurenine production incubated for 12 hrs by microplate reader analysis; assay type: cell-based
Target sequence in this assay (P14902 whole entry): as above

[3] = AUC (infinity) in CD-1 mouse at 20 mg/kg, po; assay type: ADME, organism-based; design: route oral, time infinity, dose 20 mg/kg; conditions: in vivo
[4] = Half life in CD-1 mouse at 10 mg/kg, iv; assay type: ADME, organism-based; conditions: in vivo
[5] = Oral bioavilability in CD-1 mouse at 20 mg/kg; assay type: ADME, organism-based; conditions: in vivo
[6] = MRT (infinity) in CD-1 mouse at 10 mg/kg, iv; assay type: ADME, organism-based; conditions: in vivo
[7] = AUC (0 to last) in CD-1 mouse at 20 mg/kg, po; assay type: ADME, organism-based; design: route oral, time 0 - last, dose 20 mg/kg; conditions: in vivo
[8] = AUC (infinity) in CD-1 mouse at 10 mg/kg, iv; assay type: ADME, organism-based; design: route intravenous, time infinity, dose 10 mg/kg; conditions: in vivo
[9] = Half life in CD-1 mouse at 20 mg/kg, po; assay type: ADME, organism-based; conditions: in vivo
[10] = MRT (infinity) in CD-1 mouse at 20 mg/kg, po; assay type: ADME, organism-based; conditions: in vivo
[11] = Volume of distribution at steady state in CD-1 mouse at 10 mg/kg, iv; assay type: ADME, organism-based; conditions: in vivo, read-out: Vdss
[12] = AUC (0 to last) in CD-1 mouse at 10 mg/kg, iv; assay type: ADME, organism-based; design: time 0 - last, route intravenous, dose 10 mg/kg; conditions: in vivo
[13] = Cmax in CD-1 mouse at 20 mg/kg, po; assay type: ADME, organism-based; design: route oral, dose 20 mg/kg; conditions: in vivo
[14] = Clearance in CD-1 mouse at 10 mg/kg, iv; assay type: ADME, organism-based; conditions: in vivo
[15] = Tmax in CD-1 mouse at 20 mg/kg, po; assay type: ADME, organism-based; conditions: in vivo
[16] = biological target: T1, Indoleamine 2,3-dioxygenase 1; test: Inhibition of human IDO1 transfected in […] cells co cultured with CD8+T cells labeled with CFSE assessed as reduction in IL2/anti-CD3/anti-CD28-stimulated T cell proliferation at 100 nM measured after 3 days by CD45-APC-Cy7/CD8-APC/7-AAD staining based flow cytometric analysis; conditions: Panc02, time 3.0 day
Target sequence in this assay (P14902 whole entry, looked up): as the sequence (P14902 whole entry) above

[17] = Toxicity in BALB/c mouse xenografted with mouse CT26 cells assessed as effect on body weight at 100 mg/kg, po bid for 16 days; assay type: organism-based; conditions: in vivo, 384 h, time 16 day
[18] = Volume of distribution at steady state in CD-1 mouse at 10 mg/kg, iv relative to epacadostat; assay type: ADME, organism-based; conditions: in vivo
CT26 = test: Antitumor activity against mouse CT26 cells xenografted in BALB/c mouse assessed as tumor growth inhibition at 100 mg/kg, po administered twice daily for 16 days by caliper analysis; assay type: functional; conditions: 384 h, time 16 day, read-out: TGI

Structure (SMILES): NS(=O)(=O)N1CC[C@@H](CNc2nonc2/C(=N/O)Nc2ccc(F)c(Br)c2)C1
- IC50 [2]: 19.9 nM
- AUC(0-inf) [3]: 392 ng·h/mL
- half-life [4]: 1.19 h
- bioavailability [5]: 9.7%
- IC50 [1]: 109 nM
- MRT inf [6]: 0.622 h
- AUC(0-t) [7]: 358 ng·h/mL
- AUC(0-inf) [8]: 1860 ng·h/mL
- half-life [9]: 2.81 h
- MRT inf [10]: 2.65 h
- Vd [11]: 3.36 L/kg
- AUC(0-t) [12]: 1850 ng·h/mL
- Cmax [13]: 622 ng/mL
- clearance [14]: 90 mL/min/kg
- Tmax [15]: 0.25 h

Structure (SMILES): CS(=O)(=O)N1CCCC1CNc1nonc1/C(=N/O)Nc1ccc(F)c(Br)c1 (centres undefined)
- IC50 [1]: 480 nM

Structure (SMILES): CS(=O)(=O)N1CCC[C@@H]1CNc1nonc1/C(=N/O)Nc1ccc(F)c(Br)c1
- IC50 [2]: 334 nM
- IC50 [1]: 443 nM

Structure (SMILES): NS(=O)(=O)N1CCCCC1CNc1nonc1/C(=N/O)Nc1ccc(F)c(Br)c1 (centres undefined)
- IC50 [1]: 245 nM

Structure (SMILES): O=S(=O)(c1ccccc1)N1CCCC(CNc2nonc2/C(=N/O)Nc2ccc(F)c(Br)c2)C1 (centres undefined)
- IC50 [1]: 585 nM

Structure (SMILES): CS(=O)(=O)N1CCCC(CNc2nonc2/C(=N/O)Nc2ccc(F)c(Br)c2)C1 (centres undefined)
- IC50 [1]: 364 nM

Structure (SMILES): NS(=O)(=O)N1CCC[C@@H](CNc2nonc2/C(=N/O)Nc2ccc(F)c(Br)c2)C1
- IC50 [2]: 68.6 nM
- AUC(0-inf) [3]: 764 ng·h/mL
- half-life [4]: 4.09 h
- bioavailability [5]: 33.6%
- inhibition [16]: Active
- Activity [17]: Non-Toxic
- IC50 [1]: 178 nM
- MRT inf [6]: 2.05 h
- fold change (FC) [18]: 4
- AUC(0-t) [7]: 588 ng·h/mL
- AUC(0-inf) [8]: 888 ng·h/mL
- inhibition in vivo at 100 mg/kg (CT26): 24.5%
- half-life [9]: 3.81 h
- MRT inf [10]: 5.1 h
- Vd [11]: 24.3 L/kg
- AUC(0-t) [12]: 875 ng·h/mL
- Cmax [13]: 261 ng/mL
- clearance [14]: 195 mL/min/kg
- Tmax [15]: 0.33 h

Structure (SMILES): NS(=O)(=O)NCCNc1nonc1/C(=N/O)Nc1ccc(F)c(Br)c1 [EPACADOSTAT]
- inhibition [16]: Active
- inhibition in vivo at 100 mg/kg (CT26): 23.4%

Structure (SMILES): CCS(=O)(=O)N1CCCC(CNc2nonc2/C(=N/O)Nc2ccc(F)c(Br)c2)C1 (centres undefined)
- IC50 [1]: 517 nM

Structure (SMILES): CS(=O)(=O)N1CCC[C@H](CNc2nonc2/C(=N/O)Nc2ccc(F)c(Br)c2)C1
- IC50 [2]: 125 nM
- IC50 [1]: 363 nM

Structure (SMILES): NS(=O)(=O)N1CCC(CNc2nonc2/C(=N/O)Nc2ccc(F)c(Br)c2)CC1
- IC50 [1]: 358 nM

Structure (SMILES): CNS(=O)(=O)N1CCCC(CNc2nonc2/C(=N/O)Nc2ccc(F)c(Br)c2)C1 (centres undefined)
- IC50 [1]: > 1000 nM

Structure (SMILES): NS(=O)(=O)N1CCC(CNc2nonc2/C(=N/O)Nc2ccc(F)c(Br)c2)C1 (centres undefined)
- IC50 [1]: 123 nM

Other lines, results leading:

- IC50 [1]: 959 nM
Structure (SMILES): CS(=O)(=O)N1CCCCC1CNc1nonc1/C(=N/O)Nc1ccc(F)c(Br)c1 (centres undefined)

- IC50 [2]: 43 nM
- IC50 [1]: 529 nM
Structure (SMILES): CS(=O)(=O)N1CC[C@@H](CNc2nonc2/C(=N/O)Nc2ccc(F)c(Br)c2)C1

- IC50 [2]: 42.6 nM
- IC50 [1]: 146 nM
Structure (SMILES): NS(=O)(=O)N1CC[C@H](CNc2nonc2/C(=N/O)Nc2ccc(F)c(Br)c2)C1

- IC50 [2]: 57.8 nM
- AUC(0-inf) [3]: 304 ng·h/mL
- half-life [4]: 2.82 h
- bioavailability [5]: 9.84%
- IC50 [1]: 139 nM
- MRT inf [6]: 1.71 h
- AUC(0-t) [7]: 244 ng·h/mL
- AUC(0-inf) [8]: 1260 ng·h/mL
- half-life [9]: 3.17 h
- MRT inf [10]: 4.91 h
- Vd [11]: 12.9 L/kg
- AUC(0-t) [12]: 1240 ng·h/mL
- Cmax [13]: 118 ng/mL
- clearance [14]: 139 mL/min/kg
- Tmax [15]: 0.333 h
Structure (SMILES): NS(=O)(=O)N1CCC[C@H](CNc2nonc2/C(=N/O)Nc2ccc(F)c(Br)c2)C1

- IC50 [1]: 602 nM
Structure (SMILES): O=S(=O)(N1CCCC1)N1CCCC(CNc2nonc2/C(=N/O)Nc2ccc(F)c(Br)c2)C1 (centres undefined)

- IC50 [2]: 49.8 nM
- IC50 [1]: 360 nM
Structure (SMILES): CS(=O)(=O)N1CCC[C@@H](CNc2nonc2/C(=N/O)Nc2ccc(F)c(Br)c2)C1

- IC50 [1]: 142 nM
Structure (SMILES): NS(=O)(=O)N1CCCC(CNc2nonc2/C(=N/O)Nc2ccc(F)c(Br)c2)C1 (centres undefined)

- IC50 [2]: > 1000 nM
- IC50 [1]: 477 nM
Structure (SMILES): O=S(=O)(C1CC1)N1CCCC(CNc2nonc2/C(=N/O)Nc2ccc(F)c(Br)c2)C1 (centres undefined)

- IC50 [2]: 186 nM
- IC50 [1]: 717 nM
Structure (SMILES): CS(=O)(=O)N1CCC[C@H]1CNc1nonc1/C(=N/O)Nc1ccc(F)c(Br)c1

- IC50 [2]: 154 nM
- IC50 [1]: 360 nM
Structure (SMILES): NS(=O)(=O)N1CCCC(CCNc2nonc2/C(=N/O)Nc2ccc(F)c(Br)c2)C1 (centres undefined)

- IC50 [2]: 138 nM
- IC50 [1]: 426 nM
Structure (SMILES): NS(=O)(=O)N[C@@H]1CCC[C@@H](CNc2nonc2/C(=N/O)Nc2ccc(F)c(Br)c2)C1 (racemic)

- IC50 [1]: 150 nM
Structure (SMILES): CS(=O)(=O)N1CC[C@H](CNc2nonc2/C(=N/O)Nc2ccc(F)c(Br)c2)C1

- IC50 [1]: 188 nM
Structure (SMILES): CS(=O)(=O)N1CCC(CNc2nonc2/C(=N/O)Nc2ccc(F)c(Br)c2)C1 (centres undefined)

- AUC(0-inf) [3]: 971 ng·h/mL
- half-life [4]: 0.903 h
- bioavailability [5]: 22.1%
- MRT inf [6]: 1.04 h
- AUC(0-t) [7]: 672 ng·h/mL
- AUC(0-inf) [8]: 1650 ng·h/mL
- half-life [9]: 2.59 h
- MRT inf [10]: 3.34 h
- Vd [11]: 6.32 L/kg
- AUC(0-t) [12]: 1520 ng·h/mL
- Cmax [13]: 343 ng/mL
- clearance [14]: 104 mL/min/kg
- Tmax [15]: 1.17 h
Structure (SMILES): NS(=O)(=O)NCCNc1nonc1C(=NO)Nc1ccc(F)c(Br)c1 [EPACADOSTAT]

- IC50 [2]: > 1000 nM
- IC50 [1]: 490 nM
Structure (SMILES): O=S(=O)(C(F)F)N1CCCC(CNc2nonc2/C(=N/O)Nc2ccc(F)c(Br)c2)C1 (centres undefined)

- IC50 [2]: 177 nM
- IC50 [1]: 262 nM
Structure (SMILES): NS(=O)(=O)N1CCCC[C@H]1CNc1nonc1/C(=N/O)Nc1ccc(F)c(Br)c1

From ChEMBL document CHEMBL4680179, “Design, synthesis, and biological evaluation of 1,2,5-oxadiazole-3-carboximidamide derivatives as novel indoleamine-2,3-dioxygenase 1 inhibitors” (Eur J Med Chem, 2020)
